Some test systems named below: 786-0 renal; A549 NSCLC; DU-145 prostate; EKVX NSCLC; HT29 colon; KM12 colon; MCF7 breast; RPMI-8226 leukemia; SF-268 CNS; SK-MEL-5 melanoma.
Common to all, as to assay: DTP human tumour cell line panel, 48 h

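Grown in 96-well plates, cells were treated for 48 hours with each compound at five concentrations. Insufficient inhibition: endpoint recorded as highest concentration tested. GI50: concentration for 50% inhibition of growth. TGI denotes the concentration required for complete inhibition of growth.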

Broadly, the GI50 is the concentration at which growth is held to half of that of the control. By TGI is commonly meant the concentration at which net growth stops.

With `COc1ccc(-c2cc(-c3ccc(O)cc3)nc3n[nH]c(N)c23)cc1`, the GI50 was 26 µM with 786-0 renal; 26.8 µM with A549 NSCLC; 15.3 µM in the test on DU-145 prostate; 15.3 µM with EKVX NSCLC; 22.6 µM in the test on HT29 colon; 16.3 µM with KM12 colon. Further, the GI50 in the test with MCF7 breast is 16.7 µM; with RPMI-8226 leukemia it was 21.1 µM; in the test on SF-268 CNS, 19.6 µM; in the test with SK-MEL-5 melanoma it was 15.1 µM. Further, the TGI is 74.3 µM in the test on 786-0 renal; greater than 100 µM in the test with A549 NSCLC; 36.5 µM in the test with DU-145 prostate; 52.3 µM in the test with EKVX NSCLC; greater than 100 µM in the test with HT29 colon; 40.7 µM in the test on KM12 colon. Also, the TGI in the test with MCF7 breast was found to be 56.8 µM; in the test on RPMI-8226 leukemia, 66.8 µM; with SF-268 CNS, 56.2 µM; in the test with SK-MEL-5 melanoma it was 28.8 µM.
Take `S=c1nc(Cl)cc2[nH]c(Cl)cn12`: the concentration for total growth inhibition (TGI) was greater than 100 µM with 786-0 renal; greater than 100 µM in the test on A549 NSCLC; greater than 100 µM with DU-145 prostate; 7.41 µM in the test with EKVX NSCLC; 75.3 µM in the test on HT29 colon; 33.9 µM in the test on KM12 colon. In addition, the TGI in the test with MCF7 breast was 19.3 µM; in the test on RPMI-8226 leukemia, 43.3 µM; with SF-268 CNS, greater than 100 µM; in the test on SK-MEL-5 melanoma, 17.5 µM.
Regarding `CNC(=O)Oc1cc(C)c(/C=C/c2cncc(C(=O)NC)c2)c(C)c1`, the GI50 in the test on 786-0 renal, with A549 NSCLC, in the test on DU-145 prostate, with EKVX NSCLC, in the test on HT29 colon and in the test on KM12 colon was greater than 25 µM in each case. For the same molecule, the GI50 in the test on MCF7 breast is greater than 25 µM; in the test on RPMI-8226 leukemia, greater than 25 µM; in the test with SF-268 CNS it was greater than 25 µM; in the test with SK-MEL-5 melanoma, greater than 22.1 µM. Besides, the TGI in the test on 786-0 renal, with A549 NSCLC, in the test on DU-145 prostate, with EKVX NSCLC, in the test with HT29 colon and with KM12 colon was greater than 25 µM each time. Moreover, the TGI in the test on MCF7 breast, in the test on RPMI-8226 leukemia, with SF-268 CNS and in the test on SK-MEL-5 melanoma was greater than 25 µM throughout.
As to `CCOC(=O)[C@@H](C)C[C@H](Cc1ccccc1)NC(=O)c1csc([C@@H](C[C@H](C(C)C)N(C)C(=O)[C@H](CC)NC(=O)[C@H]2CCCCN2C)OC(C)=O)n1`, the 50% growth inhibitory concentration (GI50) is 0.00387 µM with 786-0 renal; 0.00415 µM with A549 NSCLC; less than 0.00167 µM with DU-145 prostate; 0.00484 µM in the test with EKVX NSCLC; less than 0.00167 µM with HT29 colon; less than 0.00167 µM in the test with KM12 colon. Besides, the GI50 with MCF7 breast was less than 0.00167 µM; in the test on RPMI-8226 leukemia, less than 0.00167 µM; in the test with SF-268 CNS, less than 0.027 µM; in the test with SK-MEL-5 melanoma it was less than 0.00167 µM. Also, the TGI was greater than 16.7 µM in the test on 786-0 renal; greater than 16.7 µM in the test with A549 NSCLC; 0.253 µM in the test on DU-145 prostate; greater than 16.7 µM in the test with EKVX NSCLC; greater than 16.7 µM with HT29 colon; greater than 16.7 µM in the test on KM12 colon. Also, the TGI with MCF7 breast was greater than 16.7 µM; in the test on RPMI-8226 leukemia, greater than 16.7 µM; in the test with SF-268 CNS, greater than 16.7 µM; in the test with SK-MEL-5 melanoma, 0.0432 µM.
Turning to `Cc1cc(Oc2ccc3nc(COc4ccc(CC5SC(=O)NC5=O)cc4)n(C)c3c2)cc(C)c1N` (stereo not given), the GI50 in the test on 786-0 renal was 49.9 µM; in the test on A549 NSCLC, 29.5 µM; with DU-145 prostate, 45.8 µM; with EKVX NSCLC it was 39 µM; in the test with HT29 colon, 45.2 µM; in the test with KM12 colon, 26.5 µM. For the same molecule, the GI50 in the test with MCF7 breast is 27.6 µM; in the test with RPMI-8226 leukemia, 9.73 µM; in the test on SF-268 CNS it was 46.7 µM; with SK-MEL-5 melanoma, 15.6 µM. For the same molecule, the TGI is greater than 100 µM with 786-0 renal; greater than 87.7 µM with A549 NSCLC; greater than 100 µM in the test with DU-145 prostate; greater than 100 µM in the test on EKVX NSCLC; greater than 100 µM in the test with HT29 colon; greater than 76.2 µM with KM12 colon. The TGI was 98.9 µM in the test with MCF7 breast, 45.4 µM with RPMI-8226 leukemia, greater than 100 µM in the test with SF-268 CNS and 32.5 µM with SK-MEL-5 melanoma.
As for `Cc1cc(O)cc(C)c1/C=C/c1cncc(-c2nn[nH]n2)c1`, the GI50 in the test on 786-0 renal, with A549 NSCLC, with DU-145 prostate, in the test with EKVX NSCLC, in the test on HT29 colon and in the test on KM12 colon was greater than 25 µM throughout. Moreover, the GI50 in the test with MCF7 breast, in the test on RPMI-8226 leukemia, with SF-268 CNS and in the test on SK-MEL-5 melanoma was greater than 25 µM in each case. The TGI with 786-0 renal, in the test with A549 NSCLC, with DU-145 prostate, with EKVX NSCLC, in the test with HT29 colon and in the test with KM12 colon was greater than 25 µM in each case. Besides, the TGI in the test on MCF7 breast, with RPMI-8226 leukemia, in the test on SF-268 CNS and with SK-MEL-5 melanoma was greater than 25 µM throughout.
As for `CCOC(=O)/C(=C(/C)NCC(C)C)c1cc(O)c(O)c2c(C)cc(=O)[nH]c12`, the GI50 in the test on 786-0 renal was 12.2 µM; in the test with A549 NSCLC, 7.8 µM; in the test on DU-145 prostate, 10.5 µM; in the test on EKVX NSCLC, 5.45 µM; with HT29 colon it was greater than 100 µM; with KM12 colon it was 12.4 µM. For the same molecule, the GI50 with MCF7 breast was 4.38 µM; with RPMI-8226 leukemia it was 3.5 µM; in the test with SF-268 CNS, 4.67 µM; in the test on SK-MEL-5 melanoma it was 11.1 µM. In addition, the TGI was 46.4 µM with 786-0 renal; greater than 100 µM with A549 NSCLC; greater than 100 µM with DU-145 prostate; greater than 100 µM with EKVX NSCLC; greater than 100 µM with HT29 colon; greater than 100 µM in the test on KM12 colon. The TGI in the test on MCF7 breast, in the test on RPMI-8226 leukemia, in the test with SF-268 CNS and in the test with SK-MEL-5 melanoma was greater than 100 µM in each case.

Source of the values: PubChem BioAssay (NCI).
